Like-named read-outs stand apart in the source and are kept apart here.
Legend:
Magnaporthe grisea = format: in vivo, Magnaporthe grisea (Pyricularia oryzae); conditions: rice, preventive
[1] = system: Blumeria graminis f.sp. tritici; test: Mixture with malonomicin, leaf disc, Blumeria graminis f.sp. tritici preventive; format: in vivo; conditions: foliar, 168 h, read-out: control of fungal growth
Text: (§1) A stock solution for oligosaccharide compound according to the present invention was produced in water plus 0.025% Tween®20. Malonomicin was produced according to Law et al, 2018 (Nature Catalys is | VOL 1 | DECEMBER 2018 | 977-984). A stock solution of malonomicin was produced in water plus 0.025% Tween®20.
(§2) Assays to test efficacy of mixtures of the compound of Formula (I) in combination with malonomicin on the control of fungal pathogens in a leaf disc assay were designed for two 24 well plates.
Table 11 and Table 12: Outline of 24 well testplate (3) and testplate (4) including concentration of compounds per well. The upper number in the cell indicates the oligosaccharide compound of the present invention concentration (ppm), the lower number malonomicin concentration (ppm). Column (1) holds a dilution series of compound of Formula (I), row (4-D) hold a dilution series of malonomicin. Well 4-D-(1) represents an untreated check. This design was applied for tests including Blumeria graminis f.sp. tritici (EPPO code: ERYSGT) with preventive spray timing and Parastagonospora nodorum (EPPO code: LEPTNO) with preventive spray timing.
(§3) A first set of master plates with 1× concentrated spray solution of the compound of Formula (I) stock diluted in water with concentrations according to Table 8, Table 9, Table 11 and Table 12, respectively, was prepared. Each well contained 0.025% Tween®20. Accordingly, a second set of master plates with 1× concentrated malonomicin stock diluted in water was prepared. Each well of the second set contained 0.025% Tween®20. Leaf segments placed on agar in 24 well plates are sprayed with 8 ul of solution from the master plate containing compound of Formula (I) and the leaf segments were let to dry, followed 2 hours later by 8 ul of solution from the master plate containing malonomicin. After second sprays have dried, leaf segments are infected with fungal spores to obtain a preventive application timing. Alternatively, leaf segments infected one day before spray of the compounds are used, resulting in a curative spray timing. In addition, several plates were produced where leaf segments were sprayed 2× in absence of test compound (with only Tween®20), representing the untreated check samples. For each leaf segment percent leaf coverage of disease symptoms was assessed. Percent leaf coverage reduction relative to the untreated check was calculated. Efficacy of the mixtures was tested in duplicate and on different fungal species. Reported efficacy values are the average of two replicate results.
Blumeria graminis f.sp. tritici (EPPO Code: ERYSGT) with Preventive Spray Timing
Wheat (cultivar Kanzler) leaf segments are placed on agar in multiwell plates (24-well format) and sprayed with test solutions (8 ul per well). After drying, the leaf disks are inoculated with spores of the fungus. After appropriate incubation the activity of a compound is assessed 7 dpi (days post inoculation) as preventive fungicidal activity.

[2] = system: Puccinia recondita f. sp. tritici; test: Puccinia recondita f. sp. tritici / wheat / leaf disc preventative (brown rust); format: in vivo; conditions: for % reduction fungal growth: wheat, preventive
Protocol: Leaf disks or leaf segments of various plant species were cut from plants grown in the greenhouse. The cut leaf discs or segments were placed in multiwell plates (24-well format) onto water agar. The leaf disks were sprayed with a test solution before (preventative) or after (curative) inoculation. Compounds to be tested were prepared as water solutions (max. 10 mg/ml) which were diluted to the appropriate concentration with 0.025% Tween20 just before spraying. The inoculated leaf discs or segments were incubated under defined conditions (temperature, relative humidity, light, etc.) according to the respective test system. A single evaluation of disease level was carried out 3-9 days days after inoculation, depending on the pathosystem. Percent disease control relative to the untreated check leaf discs or segments was then calculated.
Puccinia recondita f. sp. tritici/Wheat/Leaf Disc Preventative (Brown Rust)
Wheat leaf segments cv. Kanzler were placed on agar in multiwell plates (24-well format) and sprayed with the formulated test compound diluted in water. The leaf disks were inoculated with a spore suspension of the fungus 1 day after application. The inoculated leaf segments were incubated at 19 °C and 75% rh under a light regime of 12 h light/12 h darkness in a climate cabinet and the activity of a compound was assessed as percent disease control compared to untreated leaf when an appropriate level of disease damage appeared in untreated check leaf segments (7-9 days after application).

Puccinia recondita = test: Mixture with malonomicin, leaf disc, Puccinia recondita curative; format: in vivo; conditions: foliar, 192 h, read-out: control of fungal growth
Text: An additional ingredient having pesticidal activity, for instance fungicidal activity may result in an unexpected synergistic activity. […] The action to be expected E for a given active ingredient combination obeys the so-called COLBY formula and can be calculated as follows (COLBY, S. R. “Calculating synergistic and antagonistic responses of herbicide combination”. Weeds, Vol. 15, pages 20-22; 1967): • ppm=milligrams of active ingredient (=a.i.) per liter of spray mixture • X=% action by active ingredient A) using p ppm of active ingredient • Y=% action by active ingredient B) using q ppm of active ingredient.
According to COLBY, the expected (additive) action of active ingredients A)+B) using p+q ppm of active ingredient is:
In mathematical terms, synergism corresponds to a positive value for the difference of (O-E). In the case of purely complementary addition of activities (expected activity), said difference (O-E) is zero. A negative value of said difference (O-E) signals a loss of activity compared to the expected activity.
as §1, §2
Table 8 and 9: Outline of 24 well testplate (1) and testplate (2) including concentration of compounds sprayed per well. The upper number in the cell indicates the oligosaccharide compound of the present invention concentration (ppm), the lower number malonomicin concentration (ppm). Column (1) holds a dilution series of compound of Formula (I), row (2-D) hold a dilution series of malonomicin. Well 2-D-(1) represents an untreated check. This design was applied for tests including Puccinia recondita (EPPO code: PUCCRE) with preventive and curative spray timing.
as §3
Puccinia recondita (EPPO Code: PUCCRE) with Curative Spray Timing.
Wheat (cultivar Kanzler) leaf segments are placed on agar in multiwell plates (24-well format). The leaf disks are then inoculated with a spore suspension of the fungus. One day after inoculation the test solution is sprayed (8 ul per well). After appropriate incubation the activity of a compound is assessed 8 dpi (days after inoculation) as curative fungicidal activity

CC(=O)NC1C(OCC(OC2OC(CO)C(O)C(O)C2O)C2OC(OC3C(O)C(CO)OC(OC4(CO)OC(C(O)CO)C(O)C4OC4OC(CO)C(O)C(O)C4O)C3O)C(O)C(O)C2OC2OC(C(O)CO)C(O)C(O)C2OC2OCC(OC(N)=O)C(O)C2O)OC(CO)C(O)C1O (stereo not drawn) [compound of Formula (I)]
% reduction fungal growth (Magnaporthe grisea; 0.80 ppm): 0% | % reduction fungal growth (Magnaporthe grisea; 2.50 ppm): 0% | % reduction fungal growth (Magnaporthe grisea; 7.40 ppm): 0% | % reduction fungal growth (Magnaporthe grisea; 22.00 ppm): 60% | % reduction fungal growth (Magnaporthe grisea; 67.00 ppm): 70% | % reduction fungal growth (Magnaporthe grisea; 200.00 ppm): 100% | inhibition of growth at 9.38 µg/mL ([1]; Formula (I) 9.38 ppm solo): 10% | inhibition of growth at 18.75 µg/mL ([1]; Formula (I) 18.75 ppm solo): 0% | inhibition of growth at 37.5 µg/mL ([1]; Formula (I) 37.5 ppm solo): 0% | inhibition of growth at 75 µg/mL ([1]; Formula (I) 75 ppm solo): 20% | inhibition of growth at 150 µg/mL ([1]; Formula (I) 150 ppm solo): 0% | inhibition of growth at 300 µg/mL ([1]; Formula (I) 300 ppm solo): 10% | inhibition of growth at 600 µg/mL ([1]; Formula (I) 600 ppm solo): 10% | preventive activity to control Puccinia recondita [2]: preventive (application of compound followed by infection with pathogen) | % reduction fungal growth ([2]; 0.80 ppm): 0% | % reduction fungal growth ([2]; 2.50 ppm): 0% | % reduction fungal growth ([2]; 7.40 ppm): 0% | % reduction fungal growth ([2]; 22.00 ppm): 0% | % reduction fungal growth ([2]; 67.00 ppm): 45% | % reduction fungal growth ([2]; 200.00 ppm): 95% | inhibition of growth at 3.13 µg/mL (Puccinia recondita; Formula (I) 3.13 ppm solo): 0% | inhibition of growth at 6.25 µg/mL (Puccinia recondita; Formula (I) 6.25 ppm solo): 0% | inhibition of growth at 12.5 µg/mL (Puccinia recondita; Formula (I) 12.5 ppm solo): 10% | inhibition of growth at 25 µg/mL (Puccinia recondita; Formula (I) 25 ppm solo): 10% | inhibition of growth at 50 µg/mL (Puccinia recondita; Formula (I) 50 ppm solo): 20% | inhibition of growth at 100 µg/mL (Puccinia recondita; Formula (I) 100 ppm solo): 70% | inhibition of growth at 200 µg/mL (Puccinia recondita; Formula (I) 200 ppm solo): 80%

— US20260344665A1, “FUNGICIDAL COMPOUND” (priority 2022, published 2026)
